# Experimental data from publication PMC7470090, “Identification of probe-quality degraders for Poly(ADP-ribose) polymerase-1 (PARP-1)” (Journal of Enzyme Inhibition and Medicinal Chemistry, 2020).
# Target: T1, PARP-1 (Homo sapiens, UniProt P09874)
# T1 construct: gene PARP1
# Experiment: cell-free PARP-1 inhibition assay, dose-response
# Format: biochemical
# T1 sequence (P09874 2-1014): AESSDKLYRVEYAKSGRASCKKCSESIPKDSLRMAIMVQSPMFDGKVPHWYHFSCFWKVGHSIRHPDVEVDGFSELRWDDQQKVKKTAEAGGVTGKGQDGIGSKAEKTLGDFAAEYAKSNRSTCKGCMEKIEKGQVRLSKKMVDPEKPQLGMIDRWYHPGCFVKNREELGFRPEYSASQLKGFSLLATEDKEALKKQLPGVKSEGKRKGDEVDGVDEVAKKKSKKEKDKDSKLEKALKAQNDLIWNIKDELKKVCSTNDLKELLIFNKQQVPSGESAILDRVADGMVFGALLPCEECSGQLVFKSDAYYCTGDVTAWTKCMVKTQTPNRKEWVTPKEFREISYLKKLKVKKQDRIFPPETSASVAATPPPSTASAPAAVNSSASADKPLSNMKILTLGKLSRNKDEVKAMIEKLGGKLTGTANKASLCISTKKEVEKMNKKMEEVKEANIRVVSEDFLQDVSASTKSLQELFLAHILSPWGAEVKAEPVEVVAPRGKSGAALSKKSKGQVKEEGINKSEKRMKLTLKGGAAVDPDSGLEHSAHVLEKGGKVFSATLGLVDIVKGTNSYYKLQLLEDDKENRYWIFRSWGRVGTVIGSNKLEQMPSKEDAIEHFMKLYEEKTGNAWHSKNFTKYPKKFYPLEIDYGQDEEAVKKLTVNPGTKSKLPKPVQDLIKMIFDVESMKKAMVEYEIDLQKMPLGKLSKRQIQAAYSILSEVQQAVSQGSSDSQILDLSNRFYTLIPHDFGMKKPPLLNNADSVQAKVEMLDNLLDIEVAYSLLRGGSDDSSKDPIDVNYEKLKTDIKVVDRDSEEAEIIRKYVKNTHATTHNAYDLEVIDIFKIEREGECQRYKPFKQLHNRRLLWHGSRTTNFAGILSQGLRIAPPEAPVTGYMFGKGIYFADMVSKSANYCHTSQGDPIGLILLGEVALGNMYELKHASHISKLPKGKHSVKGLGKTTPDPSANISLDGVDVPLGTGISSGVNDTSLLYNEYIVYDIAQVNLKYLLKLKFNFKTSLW
row,IC50 [nM],Compound
1,20.7,"O=C1CCC(N2Cc3c(NC(=O)CCCCCCCCCCCNC(=O)c4cc(Cc5n[nH]c(=O)c6ccccc56)ccc4F)cccc3C2=O)C(=O)N1 (stereo not drawn) [compound 3, N-(12-((2–(2,6-dioxopiperidin-3-yl)-1-oxoisoindolin-4-yl)amino)-12-oxododecyl)-2-fluoro-5-((4-oxo-3,4-dihydrophthalazin-1-yl)methyl)benzamide]"
2,71.3,"O=C1CCC(N2Cc3c(NC(=O)CCCCCCCNC(=O)c4cc(Cc5n[nH]c(=O)c6ccccc56)ccc4F)cccc3C2=O)C(=O)N1 (stereo not drawn) [compound 1, N-(8-((2–(2,6-dioxopiperidin-3-yl)-1-oxoisoindolin-4-yl)amino)-8-oxooctyl)-2-fluoro-5-((4-oxo-3,4-dihydrophthalazin-1-yl)methyl)benzamide]"
3,54.7,"O=C1CCC(N2Cc3c(NC(=O)CCCCCCCCCCNC(=O)c4cc(Cc5n[nH]c(=O)c6ccccc56)ccc4F)cccc3C2=O)C(=O)N1 (stereo not drawn) [compound 2, N-(11-((2–(2,6-dioxopiperidin-3-yl)-1-oxoisoindolin-4-yl)amino)-11-oxoundecyl)-2-fluoro-5-((4-oxo-3,4-dihydrophthalazin-1-yl)methyl)benzamide]"
